Earlier results, collected in patent US20140303119A1, “METHODS, APPARATUS, AND COMPOUNDS FOR THE TREATMENT OF CENTRAL RETINAL VEIN OCCLUSION AND OTHER CONDITIONS” (DiLorenzo Biomedical, LLC, priority 2013, published 2014).

Experiments:
[1] = system: central retinal vein occlusion
[2] = system: thrombosis of the central retinal vein; conditions: given intravenously, small randomized clinical study
[3] = system: patients with CRVO; conditions: 96 patients with CRVO
[4] = system: retinal vein occlusion; conditions: patients with retinal vein occlusion, troxerutin versus placebo
[5] = system: CRVO; conditions: review statement, evidence limited (level B, III)

Q: Which “incidence of blood disorders compared with ticlodipine” value (no need for regular monitoring) does the source give for `COC(=O)[C@H](c1ccccc1Cl)N1CCc2sccc2C1` [Clopidrogel, (+)-(S)-methyl 2-(2-chlorophenyl)-2-(6,7-dihydrothieno[3,2-c]pyridin-5(4H)-yl)acetate] here?
A: Its value is “reduced incidence of blood disorders”.

Q: What does the source list for Streptokinase?
A: patients showing deterioration in vision ([1]; treated group (continuous infusion followed by warfarin), control group 12 of 20): 5 of 20; patients experiencing massive vitreous hemorrhage with persistence of blindness in those eyes ([1]; treated group, within 72 hours): 3 of 20

Q: With `CCCCC[C@H](O)/C=C/[C@@H]1[C@H]2C/C(=C/CCCC(=O)O)O[C@H]2C[C@H]1O` [Prostacyclin] as the compound, how does the “progression to neovascularization versus placebo” value [2] read?
A: The value was “no significant difference”.

Q: And the “visual acuity versus placebo” value [2]?
A: The value was “no significant difference”.

Q: Which fatal stroke [3] does the source give for “Tissue plasminogen activator (tPA): Tissue plasminogen activator, fibrinolytic therapy” here?
A: Its fatal stroke is 1 patient.

Q: What about the severe intraocular bleeding [3] of the same compound?
A: The severe intraocular bleeding was 3 patients.

Q: Which results are given for `C[C@@H]1O[C@@H](OC[C@H]2O[C@@H](Oc3c(-c4ccc(OCCO)c(OCCO)c4)oc4cc(OCCO)cc(O)c4c3=O)[C@H](O)[C@@H](O)[C@@H]2O)[C@H](O)[C@H](O)[C@H]1O` [troxerutin]?
A: macular edema versus placebo [4]: improvement; retinal circulation time versus placebo [4]: improvement; visual acuity versus placebo [4]: improvement; outcome of CRVO [5]: trend for improvement

Q: With `Clc1ccccc1CN1CCc2sccc2C1` [Ticlodipine] as the compound, how does the “incidence of very serious hematological toxicity, including neutropenia, thrombocytopenia, and aplastic anemia” value (patients, requires regular monitoring) read?
A: Its value is 0.5%-3%.
